# Test results from PMC12970513, “Unsaturated Phosphorus Electrophiles to Probe Protein Tyrosine Phosphatases” (Angewandte Chemie (International Ed. in English), 2026).
# Columns and labels:
# [1] = Stability of SM-PN and SM-PO in aqueous buffer by 31P NMR; type: physicochemical; details: room temperature
# Procedure: Next, we assessed the stability of the phosphonamidic and phosphonic acid in aqueous buffers at pH 2, pH 3.5, pH 7.4, pH 8.5, and pH 11. Therefore, SM‐PN and SM‐PO were added in the corresponding buffers and monitored for 48 h at room temperature via ^31P‐NMR with triphenylphosphinoxide (TPPO) as an internal standard (Figure S2). […] Furthermore, we evaluated the stability of the peptide probes bio‐PN and bio‐PO in human lysate for subsequent experiments. These peptides were added in HEK293T cell lysate, and changes in stability were recorded for 18 h via ^31P‐NMR, in which inorganic phosphate served as an internal standard. […] Nonetheless, both peptides display sufficient stability for follow‐up studies.
# Figure S2: pH dependent stability of phosphonamidic and phosphonic acids at room temperature monitored by ^31P NMR. a) Decay of starting material SM-PN. […] At pH 2.0 the compound was already hydrolyzed in minutes before the next measurement. b) Decay of SM-PO in identical conditions.
# Internal standard triphenylphosphine oxide (TPPO, 12 µL of a 100 mM stock in DMSO, final concentration 2 mM) and SM-PN or SM-PO (36 µL of a 50 mM stock in DMSO, final concentration 3 mM) were added in microcentrifuge tubes containing 552 µL of each test buffer solution (0.1% TFA pH 2, 50 mM NaOAc pH 3.5, 50 mM Tris pH 7.4, 50 mM Tris pH 8.5, 50 mM TEAB pH 11.0, containing 10% D2O (492 μL buffer and 60 μL D2O) and mixed right before the measurement. The mixtures were transferred to NMR tubes and one-dimensional ^31P-NMR spectra were recorded for each sample at room temperature, in intervals of 4 h over the course of 48 h on a Bruker AV-III 600 or AV-III 300 spectrometer. For analysis, the spectra were plotted in MestReNova and the intensity of the ^31P-NMR signal was analyzed by integration.
# [2] = Thiol reactivity with glutathione (UPLC-UV/MS); details: 1 mM compound, 10 mM GSH (10 equivalents), 25°C / room temperature, 16 h, caffeine (peptides) or TPPO (SM) internal standard, n = 3; for consumption of starting material to glutathione adduct, pH 7.4: Tris pH 7.4, 10% DMSO; for consumption of starting material to glutathione adduct, pH 8.5: Tris pH 8.5, 10% DMSO
# Procedure: After verifying the stability of the phosphonamidic and phosphonic acid warheads at physiological and slightly basic pH, we aimed to investigate the reactivity towards endogenous thiol concentrations. For this, 1 mM bio‐PN or bio‐PO and 1 mM caffeine as an internal standard, as well as 1 mM SM‐PN or SM‐PO and 1 mM TPPO (internal standard), were incubated at room temperature with 10 equivalents (10 mM) glutathione (GSH), and the outcome was followed by UPLC‐MS (Figure S4).
# FIGURE 3 Time‐dependent decay of bio‐PN, bio‐PO, SM‐PN, and SM‐PO (1 mM) in the presence of 10 mM GSH with 1 mM caffeine or TPPO as internal standard. The assay was performed at 25°C in Tris buffer (10% DMSO) at (a) pH 7.4, (b) pH 8.5. Results are presented as mean ± standard deviation (n = 3). (c) Labeling conditions to assess by ESI‐MS the ability of bio‐PN, bio‐PO, SM‐PN, and SM‐PO to covalently bind recombinant PTP1B. Stacked deconvoluted MS spectra of the initial time point (t0) of PTP1B labeling with (d) bio‐PO after 4 h: full labeling, (e) bio‐PN after 20 h: ∼80% labeling, (f) SM‐PO after 20 h: no labeling, (g) SM‐PN after 20 h: no labeling.
# Figure S4: Monitoring of thiol reactivity with GSH as a model thiol of peptide and small molecule phosphonamidic and phosphonic acids by UPLC-UV/MS. a) Reaction conditions for bio-PN and bio-PO. b) Exemplary UV chromatograms of bio-PO at pH 8.5 and at 0 and 16 hours, highlighting the internal standard (caffeine) and the compound. c) Reaction conditions for SM-PN and SM-PO. d) Exemplary UV chrommatogramms of SM-PN at pH 8.5 and at 0 and 16 hours, highlighting the internal standard (TPPO) and the compound. All experiments were prepared in triplicates. [picture]
# For testing the thiol reactivity of bio-PN and bio-PO at pH 7.4, 10 µL of a 10 mM caffeine (internal standard) stock solution in Tris buffer pH 7.4 (final concentration 1 mM) and 10 µL of a 10 mM peptide stock solution in DMSO were added in 75 µL of 50 mM Tris buffer, pH 7.4. Immediately prior to the measurement, 5 µL of a 200 mM stock solution of reduced glutathione (final concentration 10 mM, 10.0 eq.) in Tris buffer (pH adjusted to 7.4) were added. The solutions were transferred to a sample vial and measured by UPLC-UV/MS at room temperature and at time points t0, t0.5h, t1h, t2h, t4h, t8h, t16h 1 µL of the reaction mixture was injected. For the analysis, the peak area of the internal standard was correlated with that of the starting material. The same protocol was followed at pH 8.5 using Tris buffer adjusted accordingly.
# Similar conditions were applied in the case of SM-PN and SM-PO. […]
smiles,measurement,setting,value
"C#CP(=O)(O)Oc1ccc(CCNC(=O)CCCC[C@@H]2SC[C@@H]3NC(=O)N[C@@H]32)cc1 [SM-PO, 4-(2-biotinamidoethyl)phenyl ethynylphosphonic acid monoester]",stability at all tested pH values,"[1]; pH 2, pH 3.5, pH 7.4, pH 8.5 and pH 11, 3 mM compound, 48 h",excellent stability in all tested pH values
same,"consumption of starting material to glutathione adduct, pH 7.4",[2],no consumption of the starting material to a glutathione adduct was observed
same,"consumption of starting material to glutathione adduct, pH 8.5",[2],no consumption of the starting material to a glutathione adduct was observed
"C#CP(=O)(O)Nc1ccc(CCNC(=O)CCCC[C@@H]2SC[C@@H]3NC(=O)N[C@@H]32)cc1 [SM-PN, N-(4-(2-biotinamidoethyl)phenyl)-P-ethynylphosphonamidic acid]",stability in neutral and basic pH,"[1]; 50 mM Tris pH 7.4, 50 mM Tris pH 8.5, 50 mM TEAB pH 11.0, 3 mM compound, 48 h",good stability in neutral and basic pH
same,hydrolysis,"[1]; pH 2 (0.1% TFA), 3 mM compound, TPPO internal standard",already hydrolyzed in a few minutes
same,hydrolysis of the starting material,"[1]; pH 3.5 (50 mM NaOAc), 3 mM compound, 10% D2O, TPPO internal standard, 48 h",about 80%
same,"consumption of starting material to glutathione adduct, pH 7.4",[2],no consumption of the starting material to a glutathione adduct was observed
same,"consumption of starting material to glutathione adduct, pH 8.5",[2],no consumption of the starting material to a glutathione adduct was observed
